± gives the expanded uncertainty stated by the source.
Settings: Gas chromatography

CC1=C2CC[C@@H](C)C[C@@H]2OC1=O [(.+-.)-isomintlactone]
Metastable liquid
Settings | vapor or sublimation pressure [kPa]
298.15 K | 0.00026 ± 4e-05
305 K | 0.00051 ± 9e-05
310 K | 0.00081 ± 0.00017
315 K | 0.0013 ± 0.0002
320 K | 0.0019 ± 0.0004
325 K | 0.0029 ± 0.0006
330 K | 0.0044 ± 0.001
335 K | 0.0064 ± 0.0015
340 K | 0.0093 ± 0.0021
345 K | 0.013 ± 0.002
350 K | 0.019 ± 0.004

CCCC[C@H]1OC(=O)C[C@H]1C [cis-whiskey lactone]
Liquid
Settings | vapor or sublimation pressure [kPa]
298.15 K | 0.0015 ± 0.0002
305 K | 0.0028 ± 0.0004
310 K | 0.0043 ± 0.0009
315 K | 0.0064 ± 0.0013
320 K | 0.0095 ± 0.0019
325 K | 0.014 ± 0.002
330 K | 0.02 ± 0.004
335 K | 0.029 ± 0.006
340 K | 0.041 ± 0.009
345 K | 0.057 ± 0.011
350 K | 0.079 ± 0.013

CC1=C2CC[C@@H](C)C[C@H]2OC1=O [(-)-mintlactone]
Metastable liquid
Settings | vapor or sublimation pressure [kPa]
298.15 K | 0.00033 ± 5e-05
305 K | 0.00063 ± 0.00011
310 K | 0.001 ± 0.0002
315 K | 0.0015 ± 0.0004
320 K | 0.0024 ± 0.0006
325 K | 0.0035 ± 0.0008
330 K | 0.0053 ± 0.0013
335 K | 0.0077 ± 0.0017
340 K | 0.011 ± 0.002
345 K | 0.016 ± 0.002
350 K | 0.023 ± 0.004

CCCC[C@H]1OC(=O)C[C@@H]1C [trans-whiskey lactone]
Liquid
Settings | vapor or sublimation pressure [kPa]
298.15 K | 0.002 ± 0.0003
305 K | 0.0036 ± 0.0007
310 K | 0.0056 ± 0.0011
315 K | 0.0084 ± 0.0017
320 K | 0.012 ± 0.003
325 K | 0.018 ± 0.004
330 K | 0.026 ± 0.006
335 K | 0.037 ± 0.007
340 K | 0.052 ± 0.011
345 K | 0.072 ± 0.013
350 K | 0.099 ± 0.016
